SMILES strings stand for the structures. Where two headings read alike, the source gives them in different places.

Experiment [1] concerns rat ventral aorta. Put plainly: Blood vessel relaxation activity, phenylephrine-contracted rat ventral aorta ring specimen. As to conditions: relaxation of 1 μmol/L phenylephrine contraction; EC50 without ODQ / EC50 with 10 μmol/L ODQ. Here is the method: A representative compound of the present invention was assayed for blood vessel relaxation activity according to the Test Example described below. In the assay, a rat (male, SD) was phlebotomized from the upper part of the heart under pentobarbital (30 mg/kg) anesthesia, and the ventral aorta was extracted. The connective tissue adhering around the blood vessel in the ventral aorta was removed in an ice-cooled Krebs-Henseleit solution (KH solution) (118 mmol/L sodium chloride, 4.7 mmol/L potassium chloride, 1.2 mmol/L magnesium sulfate, 1.2 mmol/L potassium dihydrogenphosphate, 25 mmol/L sodium hydrogen carbonate, 2.5 mmol/L calcium chloride and 10 mmol/L glucose, pH 7.4). Then, a ring specimen of 2 mm length was prepared, and fixed in 5 mL organ bath filled with the KH solution. The KH solution was maintained at 37° C., and a mixed gas of 95% O2 and 5% CO2 was ventilated. The specimen was stabilized with 1 g of the resting tension for 1 hour. In the meantime, the KH solution was exchanged twice. The tension of the specimen was recorded with a multichannel recorder through a pickup and an amplifier. After stabilization of the specimen, contraction was induced with 1 μmol/L phenylephrine (Phe), and cumulative administration of each compound (0.001, 0.01, 0.03, 0.1, 0.3, 1, 3, 10, 30, 100, 1000, 10000 nmol/L) was carried out. In the case of evaluation at the time of containing ODQ, 10 μmol/L ODQ was added 10 minutes before administration of Phe, and similar evaluation was performed.
EC50 value was calculated by Four-parameter Logistic Model with Assay Explorer (Accelrys, Inc.). Meanwhile, the solution of the test compound was prepared by dissolving the compound in DMSO to prepare solutions having the concentration of each test compound 1000 times higher than the final concentration.

Experiment [2] concerns the target T1, human sGC (Homo sapiens, UniProt Q02153).
T1 construct: expressed in transfected cells; host or cells: CHO-K1 (Chinese hamster ovary) cells
T1 sequence (Q02153 1-619): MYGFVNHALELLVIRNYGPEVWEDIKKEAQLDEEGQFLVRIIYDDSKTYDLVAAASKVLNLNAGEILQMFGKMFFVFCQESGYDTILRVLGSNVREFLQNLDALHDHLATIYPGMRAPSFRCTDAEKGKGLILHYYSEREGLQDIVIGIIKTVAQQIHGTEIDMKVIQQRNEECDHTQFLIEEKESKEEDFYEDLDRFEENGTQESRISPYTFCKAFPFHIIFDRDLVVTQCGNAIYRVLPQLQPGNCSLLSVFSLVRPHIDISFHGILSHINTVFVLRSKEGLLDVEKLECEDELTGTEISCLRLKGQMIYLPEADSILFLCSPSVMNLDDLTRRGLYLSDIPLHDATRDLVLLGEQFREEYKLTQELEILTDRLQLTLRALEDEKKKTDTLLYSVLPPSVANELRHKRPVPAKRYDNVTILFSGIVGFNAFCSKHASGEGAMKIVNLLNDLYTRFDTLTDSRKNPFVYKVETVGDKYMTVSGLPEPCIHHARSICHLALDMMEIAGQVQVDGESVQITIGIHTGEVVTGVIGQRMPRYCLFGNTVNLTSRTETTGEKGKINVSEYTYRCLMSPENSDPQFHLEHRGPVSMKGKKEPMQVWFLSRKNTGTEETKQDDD
T1 sequence (Q02108 1-690 partner): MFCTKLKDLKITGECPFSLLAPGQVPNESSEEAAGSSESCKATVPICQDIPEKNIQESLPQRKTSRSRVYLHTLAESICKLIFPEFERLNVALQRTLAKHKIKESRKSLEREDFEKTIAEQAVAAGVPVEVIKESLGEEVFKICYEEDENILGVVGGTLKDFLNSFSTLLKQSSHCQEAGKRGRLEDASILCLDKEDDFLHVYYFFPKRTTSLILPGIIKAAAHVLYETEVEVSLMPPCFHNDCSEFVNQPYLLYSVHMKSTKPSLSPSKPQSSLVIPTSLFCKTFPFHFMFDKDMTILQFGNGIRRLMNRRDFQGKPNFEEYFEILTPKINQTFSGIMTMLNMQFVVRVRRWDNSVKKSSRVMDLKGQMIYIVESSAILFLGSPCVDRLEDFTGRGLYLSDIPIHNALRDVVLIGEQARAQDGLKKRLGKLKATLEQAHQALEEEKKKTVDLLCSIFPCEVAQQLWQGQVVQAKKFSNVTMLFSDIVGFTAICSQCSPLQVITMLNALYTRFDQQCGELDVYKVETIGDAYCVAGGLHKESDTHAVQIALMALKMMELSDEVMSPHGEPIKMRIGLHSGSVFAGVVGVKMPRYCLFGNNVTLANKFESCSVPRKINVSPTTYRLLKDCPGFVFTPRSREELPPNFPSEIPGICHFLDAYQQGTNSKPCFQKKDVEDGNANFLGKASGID
Put plainly: Maximum effect of sGC activation (intracellular Ca2+, Fura2-AM) in CHO-K1 cells stably expressing human sGC and mouse CNGA2. The format is cell-based. Conditions: increase rate of sGC activity vs DMSO control, test compound 10 μmol/L. The method, then: For the assay, chinese hamster ovary cells (CHO-K1 cells) stably expressing both α and β subunits of human sGC and mouse cyclic nucleotide-gated channel (CNGA2) were used.
The CHO-K1 cells stably expressing human sGC and mouse CNGA2 was cultured at 37° C. on F-12 medium containing 10% (v/v) fetal bovine serum (FBS), penicillin (100 U/mL), streptomycin (100 μg/mL), G418 (250 μg/mL) and Zeocin (250 μg/mL). The cells were suspended in a culture medium, seeded on a 96 well plate, and then cultured at 37° C. for 24 hours. The cells were washed with Assay buffer 1 (140 mmol/L sodium chloride, 5 mmol/L potassium chloride, 0.5 mmol/L magnesium chloride, 0.01 mmol/L calcium chloride, 10 mmol/L glucose, 0.4 mmol/L magnesium sulfate, 10 mmol/L 4-(2-hydroxyethyl)piperazin-1-ylethanesulfonic acid and 125 μmol/L sulfinpyrazone, pH 7.4), and then added a solution containing Fura2-AM, a fluorescent Ca^2+ indicator, in Assay buffer 1 at […] concentration thereto as an indicator solution, and cultured at 37° C. for 60 minutes. The culture medium was removed, and the cells were washed with Assay buffer 1, and then added a solution containing the test compound thereto, and cultured at room temperature for 10 minutes. A plate was placed onto a fluorometer (FlexStation II, Molecular Devices), and the intracellular calcium concentration was determined as the ratio of fluorescent intensity, obtained from measurement using 340 nm and 380 nm as excitation wavelength and 510 nm as detection wavelength.
The solution of the test compound was prepared by dissolving each test compound in DMSO at 10 mmol/L, and then diluting the solution for the test concentration at 10 μmol/L with Assay buffer (140 mmol/L sodium chloride, 5 mmol/L potassium chloride, 0.5 mmol/L magnesium chloride, 1 mmol/L calcium chloride, 10 mmol/L glucose, 0.4 mmol/L magnesium sulfate, 10 mmol/L 4-(2-hydroxyethyl)piperazin-1-ylethanesulfonic acid, […] sulfinpyrazone, 100 μmol/L isobutyl methyl xanthine, and 10 μmol/L 1H-[1,2,4]-oxadiazol[4,3-a]quinoxaline-1-one (hereinafter, ODQ), pH 7.4). The evaluation in the absence of ODQ was performed similarly, except that ODQ was not added to Assay buffer 2. As a control solution, a DMSO solution was used instead of the test compound solution.
The activity of the test compound defined as the increase rate of the sGC activity (%) at the time of adding the solution of the test compound with respect to the sGC activity at the time of adding the control solution, was calculated by dividing the fluorescent intensity ratio at the time of adding the test compound by the fluorescent intensity ratio of the control solution, and subtracting the sGC activity at the time of adding the control solution (100%).
If sGC is activated in this assay, intracellular cGMP concentration increases and accordingly intracellular Ca^2+ concentration is increased by opening of CNGA2. Accordingly, sGC activation can be measured as the change of Ca^2+ concentration in the cell. […] Accordingly, it is possible to evaluate maximum sGC activation effect including heme-dependent activation in the absence of ODQ, and also possible to evaluate heme independent sGC activation effect in the presence of ODQ.

The mark [3] stands for this setting: 10 μmol/L ODQ present, read-out: Emax (%) ODQ+ (Heme-independent).
The mark [4] stands for this setting: absence of ODQ, read-out: Emax (%) ODQ− (Heme-dependent).

Consider `O=C(O)CCCCN(CCc1ccccc1OCc1ccc(CCc2ccccc2)cc1)Cc1ccc(C(=O)O)cc1` [Cinaciguat, reference compound], for which the “EC50 Ratio (ODQ−/ODQ+)” value in experiment [1] was determined as 12.4.

Regarding `CC(C)(C)c1cccc(COC(CN(CCCCC(=O)O)Cc2ccc(C(=O)O)cc2)c2ccccc2)c1` (stereo not shown) [Example 10, 4-{[N-[2-(3-tert-Butylbenzyloxy)-2-phenylethyl]-N-(4-carboxybutyl)amino]methyl}benzoic acid], the Emax (commonly the size of the effect at its maximum, as opposed to the concentration needed) at 10 µM in experiment [2] (setting [3]) is 141%; in experiment [2] (setting [4]), 103%.

Regarding `O=C(O)CCCCCN(Cc1ccc(C(=O)O)cc1)CC(OCc1ccc(CCc2ccccc2)cc1)c1ccccc1` (stereo not shown) [Example 15, 4-{[N-(5-Carboxypentyl)-N-[2-[4-(2-phenylethyl)benzyloxy]-2-phenylethyl]amino]methyl}benzoic acid], the Emax at 10 µM was found to be 87.7% in experiment [2] (setting [3]) and 89.1% in experiment [2] (setting [4]).

Turning to `CC(C)(CCN(Cc1ccc(C(=O)O)cc1)CC(OCc1ccc(CCc2ccccc2)cc1)c1ccccc1)CC(=O)O` (stereo not shown) [Example 18], the maximal effect (Emax) at 10 µM in experiment [2] (setting [3]) worked out at 129%; in experiment [2] (setting [4]) it was 96.2%.

Turning to `O=C(O)CCCCN(Cc1ccc(C(=O)O)cc1)CC(OCc1ccc(CCc2ccccc2)cc1)c1cccc(Cl)c1` (stereo not shown) [Example 22, 4-{[N-(4-Carboxybutyl)-N-[2-(3-chlorophenyl)-2-[4-(2-phenylethyl)benzyloxy]ethyl]amino]methyl}benzoic acid], the figures for the Emax at 10 µM in experiment [2] (setting [3]) and in experiment [2] (setting [4]) were 115% and 106%, respectively.

In the case of `O=C(O)CCCCN(Cc1ccc(C(=O)O)cc1)CC(OCc1ccc(CCc2ccccc2)s1)c1cccc(Cl)c1` (stereo not shown) [Example 24, 4-{[N-(4-Carboxybutyl)-N-[2-(3-chlorophenyl)-2-[5-(2-phenylethyl)thiophen-2-ylmethoxy]ethyl]amino]methyl}benzoic acid], the Emax at 10 µM in experiment [2] (setting [3]) was found to be 132%; in experiment [2] (setting [4]), 150%.

As for `N#Cc1cccc([C@H](CN(CCCCC(=O)O)Cc2ccc(C(=O)O)cc2)OCc2ccc(CCc3ccccc3)cc2)c1` [Example 30, (−)-4-{[N-(4-Carboxybutyl)-N-[(2R)-2-(3-cyanophenyl)-2-[4-(2-phenylethyl)benzyloxy]ethyl]amino]methyl}benzoic acid], the Emax at 10 µM in experiment [2] (setting [3]) came out at 129%; in experiment [2] (setting [4]), 83.4%.

With `CC(C)(C)c1cccc(CO[C@@H](CN(CCCCC(=O)O)Cc2ccc(C(=O)O)cc2)c2cccc(Cl)c2)c1` [Example 34, (−)-4-{[N-[(2R)-2-(3-tert-Butylbenzyloxy)-2-(3-chlorophenyl)ethyl]-N-(4-carboxybutyl)amino]methyl}benzoic acid], the Emax at 10 µM came out at 125% in experiment [2] (setting [3]) and 82.3% in experiment [2] (setting [4]).

Regarding `O=C(O)CCCCN(Cc1ccc(C(=O)O)cc1)C[C@H](OCc1ccc(CCC2CCCC2)cc1)c1ccccc1` [Example 39, (−)-4-{[N-(4-Carboxybutyl)-N-[(2R)-2-[4-(2-cyclopentylethyl)benzyloxy]-2-phenylethyl]amino]methyl}benzoic acid], the figures for the maximal response (Emax) at 10 µM in experiment [2] (setting [3]) and in experiment [2] (setting [4]) were 142% and 148%, respectively.

With `O=C(O)CCCCN(Cc1ccc(C(=O)O)cc1)C[C@H](OCc1ccc(CCc2ccc(Cl)cc2)cc1)c1ccccc1` [Example 40, (−)-4-{[N-(4-Carboxybutyl)-N-[(2R)-2-[4-[2-(4-chlorophenyl)ethyl]benzyloxy]-2-phenylethyl]amino]methyl}benzoic acid], the Emax at 10 µM stood at 120% in experiment [2] (setting [3]) and 127% in experiment [2] (setting [4]).

With `O=C(O)CCCCN(Cc1ccc(C(=O)O)cc1)C[C@H](OCc1ccc(CCc2ccccc2)s1)c1ccccc1` [Example 43, (−)-4-{[N-(4-Carboxybutyl)-N-[(2R)-2-[5-(2-phenylethyl)thiophen-2-ylmethoxy]-2-phenylethyl]amino]methyl}benzoic acid], the maximum response (Emax) at 10 µM in experiment [2] (setting [3]) was 124%; in experiment [2] (setting [4]), 108%.

As to `CC(C)(C)c1cc(CO[C@@H](CN(CCCCC(=O)O)Cc2ccc(C(=O)O)cc2)c2ccccc2)cc(C(C)(C)C)c1` [Example 46, (−)-4-{[N-(4-Carboxybutyl)-N-[(2R)-2-(3,5-di-tert-butylbenzyloxy)-2-phenylethyl]amino]methyl}benzoic acid], the Emax at 10 µM in experiment [2] (setting [3]) stood at 108%; in experiment [2] (setting [4]), 161%.

Turning to `O=C(O)CCCCN(Cc1ccc(C(=O)O)cc1)CC(OCc1cccc(CCc2ccccc2)c1)c1ccccc1` (stereo not shown) [Example 60, 4-{[N-(4-Carboxybutyl)-N-[2-[3-(2-phenylethyl)benzyloxy]-2-phenylethyl]amino]methyl}benzoic acid], the values for the Emax at 10 µM in experiment [2] (setting [3]) and in experiment [2] (setting [4]) were 88.9% and 110%, respectively.

For the origin of these results see patent US9714213B2, “4-aminomethylbenzoic acid derivative” (TOA EIYO LTD., priority 2013, dated 2017).
